The term EC50 denotes the concentration at which the effect is half-maximal. Low readings indicate an effect from little substance, high ones a need for much substance.

The results in this text go back to patent US11884675B2, “Heterocyclic compounds as triggering receptor expressed on myeloid cells 2 agonists and methods of use” (AMGEN INC., priority 2020, dated 2024).

Each structure is given as a SMILES string.

The experiment deals with hTREM2 (Homo sapiens, UniProt Q9NZC2). Put plainly: TREM2 activity by cellular Syk phosphorylation (AlphaScreen/AlphaLISA) in TREM2/DAP12-HEK cells, used for Examples 1-305. The class given is cell-based. On the set-up: expressed in transfected cells. Conditions: HEK293 Cells. Put shortly:
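Phospho-Syk (Tyr525/526) over total Syk quantified by AlphaScreen in lysates of cloned TREM2/DAP12-overexpressing HEK293 cells after 45 min compound treatment at room temperature, 1% final DMSO. Values expressed relative to 100 nM anti-TREM2 antibody (positive) and isotype IgG (negative) controls; curves fitted with 4-parameter logistic model.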
(In general: Alpha assays give light when donor and acceptor beads are brought close together.)

hTREM2, sequence (Q9NZC2 19-230): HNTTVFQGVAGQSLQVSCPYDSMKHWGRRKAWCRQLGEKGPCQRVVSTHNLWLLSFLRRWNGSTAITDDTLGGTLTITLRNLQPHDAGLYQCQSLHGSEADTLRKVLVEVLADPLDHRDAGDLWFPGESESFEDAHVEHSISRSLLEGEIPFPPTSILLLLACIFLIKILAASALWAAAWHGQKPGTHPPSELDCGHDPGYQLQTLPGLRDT
hTREM2, sequence (O43914 22-113 partner): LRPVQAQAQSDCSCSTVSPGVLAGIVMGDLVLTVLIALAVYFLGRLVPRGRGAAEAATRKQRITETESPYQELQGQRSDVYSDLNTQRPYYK

For the molecule `Cc1cc([C@@H]2CN(c3nc4nc(C)cnc4c([C@H]4C[C@H](C(F)(F)F)C4)n3)CCO2)cnn1` [Example 281, (R)-4-(7-methyl-4-((1r,3S)-3-(trifluoromethyl)cyclobutyl)pteridin-2-yl)-2-(6-methylpyridazin-4-yl)morpholine], the EC50 fell in the range of 0.5 to 3 µM; the “hTREM2 Emax” value was “+++ (Emax>150 and ≤250)”.

In the case of `Cc1ccc2c(-c3ccc(Cl)cc3F)nc([C@H]3CCO[C@@H](c4cnn(C)c4)C3)nc2n1` [Example 287, 4-(4-chloro-2-fluorophenyl)-7-methyl-2-((2R,4S)-2-(1-methyl-1H-pyrazol-4-yl)tetrahydro-2H-pyran-4-yl)pyrido[2,3-d] pyrimidine], the EC50 is 0.5 to 3 µM; the “hTREM2 Emax” value is “+++ (Emax>150 and ≤250)”.

`Cc1cnc2c(-c3ccc(Cl)cc3F)nc(N3CCO[C@@H](c4cnn(C)c4)C3)cc2n1` [Example 73, 5-(4-chloro-2-fluorophenyl)-2-methyl-7-((2S)-2-(1-methyl-1H-pyrazol-4-yl)-4-morpholinyl)pyrido[3,4-b]pyrazine]: the EC50 lay within 0.05 to 0.5 µM and the “hTREM2 Emax” value is reported as “++++ (Emax>250)”.

Take `Cc1nc2nc(N3CCO[C@@H](c4cnn(C)c4)C3)nc(N3CC(C(F)(F)F)C3)c2nc1C` [Example 30, 6,7-dimethyl-2-((2S)-2-(1-methyl-1H-pyrazol-4-yl)-4-morpholinyl)-4-(3-(trifluoromethyl)-1-azetidinyl)pteridine]: the EC50 is 0.5 to 3 µM; the “hTREM2 Emax” value was “++ (Emax>100 and ≤150)”.

For the molecule `Cc1cc([C@H]2C[C@@H](c3nc(-c4ccc(Cl)cc4F)c4ncc(C)nc4n3)CCO2)ccn1` (single isomer, unassigned) [Example 171], the EC50 is ≤ 0.05 µM; the “hTREM2 Emax” value was “+++ (Emax>150 and ≤250)”.

For the molecule `Cc1cnc2c(n1)nc(N1CCO[C@@H](c3cnn(C4CC4)c3)C1)nc2[C@H]1C[C@@H](C(F)(F)F)C1` [Example 12, 2-((2S)-2-(1-cyclopropyl-1H-pyrazol-4-yl)-4-morpholinyl)-7-methyl-4-(cis-3-(trifluoromethyl)cyclobutyl)pteridine], the EC50 fell in the range of 0.5 to 3 µM; the “hTREM2 Emax” value was “++ (Emax>100 and ≤150)”.

Consider `Cc1ccc(-c2nc(N3CCO[C@@H](c4cnn(C)c4)C3)nc3nc(C)c(C)nc23)cn1` [Example 20, 6,7-dimethyl-2-((2S)-2-(1-methyl-1H-pyrazol-4-yl)-4-morpholinyl)-4-(6-methyl-3-pyridinyl)pteridine], for which the EC50 was 0.5 to 3 µM; the “hTREM2 Emax” value was “+++ (Emax>150 and ≤250)”.

For the molecule `CN1Cc2c(cc(N3CCO[C@@H](c4cnn(C)c4)C3)nc2[C@H]2C[C@@H](C(F)(F)F)C2)C1=O` [Example 117, 2-methyl-6-((2S)-2-(1-methyl-1H-pyrazol-4-yl)-4-morpholinyl)-4-(cis-3-(trifluoromethyl)cyclobutyl)-2,3-dihydro-1H-pyrrolo[3,4-c]pyridin-1-one], the EC50 lay in the range of 3 to 100 µM.

Take `Cc1cnc2c(n1)nc(N1CCO[C@@H](c3cnn(C)c3)C1)nc2[C@H]1C[C@H](C(F)(F)F)C1` [Example 11, 7-methyl-2-((2S)-2-(1-methyl-1H-pyrazol-4-yl)-4-morpholinyl)-4-(trans-3-(trifluoromethyl)cyclobutyl)pteridine]: the EC50 was in the range of 0.05 to 0.5 µM; the “hTREM2 Emax” value is “++ (Emax>100 and ≤150)”.

For the molecule `Cc1cnc2c(-c3ccc(Cl)cc3F)nc(N3CCO[C@@H](c4cnn(C5CC5)c4)C3)nc2n1` [Example 2, 4-(4-chloro-2-fluorophenyl)-2-((2S)-2-(1-cyclopropyl-1H-pyrazol-4-yl)-4-morpholinyl)-7-methylpteridine], the EC50 was ≤ 0.05 µM; the “hTREM2 Emax” value was “+++ (Emax>150 and ≤250)”.

Regarding `Cc1nc2nc(N3CCO[C@@H](c4cnn(C)c4)C3)nc([C@H]3CC[C@H](C)CC3)c2nc1C` [Example 136, 6,7-dimethyl-4-(trans-4-methylcyclohexyl)-2-((2S)-2-(1-methyl-1H-pyrazol-4-yl)-4-morpholinyl)pteridine], the EC50 was ≤ 0.05 µM; the “hTREM2 Emax” value was “+++ (Emax>150 and ≤250)”.

In the case of `Cc1cnc2c(-c3ccc(Cl)cc3F)nc(N3CCOC(C4CCOC4)C3)nc2n1` (stereo not drawn) [Example 5, 4-(4-chloro-2-fluorophenyl)-7-methyl-2-(2-(tetrahydro-3-furanyl)-4-morpholinyl)pteridine], the EC50 lay in the range of 0.5 to 3 µM; the “hTREM2 Emax” value is “+++ (Emax>150 and ≤250)”.

With `Cc1cc([C@H]2CN(c3nc(-c4ccc(F)cc4F)c4nc(C)c(C)nc4n3)CCO2)ccn1` [Example 33, 4-(2,4-difluorophenyl)-6,7-dimethyl-2-((2S)-2-(2-methyl-4-pyridinyl)-4-morpholinyl)pteridine], the concentration giving a half-maximal response (EC50) was ≤ 0.05 µM and the “hTREM2 Emax” value is “++++ (Emax>250)”.

Consider `Cc1cc2c(-c3ccc(F)cc3F)nc([C@@H]3CCO[C@H](c4cnn(C)c4)C3)nc2nc1C` (single isomer, unassigned) [Example 200], for which the EC50 lay in the range of 0.5 to 3 µM; the “hTREM2 Emax” value was “+++ (Emax>150 and ≤250)”.

`Cc1nc2nc(N3CCO[C@@H](c4cnn(C)c4)C3)nc(N3CC(F)C3)c2nc1C` [Example 29, 4-(3-fluoro-1-azetidinyl)-6,7-dimethyl-2-((2S)-2-(1-methyl-1H-pyrazol-4-yl)-4-morpholinyl)pteridine] came in with an EC50 of 3 to 100 µM.

Consider `Cc1nc2nc(N3CCO[C@@H](c4cnn(C)c4)C3)nc(C3=CC[C@@H](C(F)(F)F)CC3)c2nc1C` (single isomer, unassigned) [Example 127], for which the EC50 is ≤ 0.05 µM; the “hTREM2 Emax” value is “++ (Emax>100 and ≤150)”.

Turning to `Cc1ncc([C@H]2CN(c3nc(-c4ccc(C(F)(F)F)nc4)c4nc(C)c(C)nc4n3)CCO2)cn1` [Example 294, (S)-4-(6,7-dimethyl-4-(6-(trifluoromethyl)pyridin-3-yl)pteridin-2-yl)-2-(2-methylpyrimidin-5-yl)morpholine], the EC50 was in the range of 0.5 to 3 µM; the “hTREM2 Emax” value was “+++ (Emax>150 and ≤250)”.

`Cn1cc([C@H]2CN(c3nc(-c4ccc(Cl)cc4F)c4cccnc4n3)CCO2)cn1` [Example 83, 4-(4-chloro-2-fluorophenyl)-2-((2S)-2-(1-methyl-1H-pyrazol-4-yl)-4-morpholinyl)pyrido[2,3-d]pyrimidine]: the EC50 fell in the range of 0.5 to 3 µM and the “hTREM2 Emax” value was “++++ (Emax>250)”.

As for `Cc1nc2nc([C@H]3CCO[C@@H](c4cnn(C)c4)C3)cc(-c3ccc(F)cc3F)c2nc1C` (single isomer, unassigned) [Example 188], the EC50 was ≤ 0.05 µM; the “hTREM2 Emax” value was “+++ (Emax>150 and ≤250)”.

For `Cc1nc2nc(N3CCO[C@@H](c4cnn(C)c4)C3)nc(C3CCC(F)(F)CC3)c2nc1C` [Example 133, 4-(4,4-difluorocyclohexyl)-6,7-dimethyl-2-((2S)-2-(1-methyl-1H-pyrazol-4-yl)-4-morpholinyl)pteridine], the EC50 was ≤ 0.05 µM; the “hTREM2 Emax” value was “+++ (Emax>150 and ≤250)”.

Take `Cc1nc2nc(N3CCO[C@@H](c4cnn(C)c4)C3)nc(N3CCCC(F)(F)C3)c2nc1C` [Example 68, 4-(3,3-difluoro-1-piperidinyl)-6,7-dimethyl-2-((2S)-2-(1-methyl-1H-pyrazol-4-yl)-4-morpholinyl)pteridine]: the EC50 lay within 3 to 100 µM.

Turning to `Cc1nc2nc(N3CCO[C@@H](c4cnn(C)c4)C3)nc(N3CCC(C)(C)C3)c2nc1C` [Example 72, 4-(3,3-dimethyl-1-pyrrolidinyl)-6,7-dimethyl-2-((2S)-2-(1-methyl-1H-pyrazol-4-yl)-4-morpholinyl)pteridine], the EC50 lay within 0.5 to 3 µM; the “hTREM2 Emax” value is “+ (Emax>45 and ≤100)”.

Regarding `Cc1cc([C@H]2CN(c3cc4nc(C)c(C)nc4c([C@H]4C[C@H](C(F)(F)F)C4)n3)CCO2)ccn1` [Example 82], the EC50 lay within 0.05 to 0.5 µM; the “hTREM2 Emax” value was “+++ (Emax>150 and ≤250)”.

For the molecule `Cc1nc2nc([C@H]3CCO[C@@H](c4cnn(C)c4)C3)cc(-c3ccc(Cl)cc3F)c2nc1C` (single isomer, unassigned) [Example 187], the EC50 is ≤ 0.05 µM; the “hTREM2 Emax” value was “+++ (Emax>150 and ≤250)”.

For `Cc1ccc2c(-c3ccc(Cl)cc3F)nc(N3CCO[C@H](c4cnc(C)nc4)C3)nc2n1` (single isomer, unassigned) [Example 89], the EC50 lay in the range of 0.5 to 3 µM; the “hTREM2 Emax” value is “+++ (Emax>150 and ≤250)”.

As for `Cc1ccc(-c2nc([C@@H]3CCO[C@H](c4cnn(C)c4)C3)nc3nc(C)c(C)cc23)c(F)c1` (single isomer, unassigned) [Example 202], the EC50 fell in the range of 0.5 to 3 µM; the “hTREM2 Emax” value was “++ (Emax>100 and ≤150)”.

`Cc1nc2nc(N3CCO[C@@H](c4cnn(C5CC5)c4)C3)nc(-c3ccc(C(F)(F)F)nc3)c2nc1C` [Example 298, (S)-2-(1-cyclopropyl-1H-pyrazol-4-yl)-4-(6,7-dimethyl-4-(6-(trifluoromethyl)pyridin-3-yl)pteridin-2-yl)morpholine]: the EC50 is ≤ 0.05 µM; the “hTREM2 Emax” value was “+++ (Emax>150 and ≤250)”.

On to `Cc1cc2c(-c3ccc(Cl)cc3F)cc(N3CCO[C@@H](c4cnn(C)c4)C3)nc2nc1C` [Example 157, 5-(4-chloro-2-fluorophenyl)-2,3-dimethyl-7-((2S)-2-(1-methyl-1H-pyrazol-4-yl)-4-morpholinyl)-1,8-naphthyridine], for which the EC50 was ≤ 0.05 µM and the “hTREM2 Emax” value is given as “++++ (Emax>250)”.

For `Cc1ccc(-c2nc([C@H]3CCO[C@@H](c4cnn(C)c4)C3)nc3nc(C)c(C)cc23)c(F)c1` (single isomer, unassigned) [Example 203], the EC50 is ≤ 0.05 µM; the “hTREM2 Emax” value is “+++ (Emax>150 and ≤250)”.

For the molecule `Cc1nc2nc(N3CCO[C@@H](c4cnn(C)c4)C3)nc(C3CCC(C)(C)CC3)c2nc1C` [Example 130, 4-(4,4-dimethylcyclohexyl)-6,7-dimethyl-2-((2S)-2-(1-methyl-1H-pyrazol-4-yl)-4-morpholinyl) pteridine], the EC50 was ≤ 0.05 µM; the “hTREM2 Emax” value was “+ (Emax>45 and ≤100)”.
